Experimental data as given in patent US20260001875A1, “AMINOPYRIMIDINYL DERIVATIVES FOR THE TREATMENT OF PARKINSON'S DISEASE” (UNIVERSITY OF DUNDEE, priority 2022, published 2026).

What was measured:
Conditions in all cases: Mus musculus
Rab10 pThr73 [1] = experiment: Rab10 Thr73 dephosphorylation (immunoblot) in WT MEFs; assay type: cell-based, mouse
Method: (§1) Western blot degradation assays for the LRRK2 protacs were performed with WT and PD-associated LRRK2 [G2019S] mouse embryonic fibroblasts (MEFs). The second-generation PROTACs were tested in parallel with the first generation PROTACs SD75, SD82, and SD100. The compounds were tested at 33 nM or […] concentrations for 4 hours or 24 hours, running two biological replicates per condition and achieving quantifications representative of both replicates. Analysis by quantitative immunoblotting was performed with readouts of the total LRRK2 (antibody recognizes epitope in C-terminus of protein), Rab10 pThr73 (physiological substrate) and LRRK2 pSer935 (biomarker phosphorylation site).
(§2) Primary MEFs were generated as described in a previous study (Wiggin et al., Mol. Cell Biol. 2002 April; 22(8):2871-81.). Briefly, the uterine horn was collected from adult female mice at day E12.5 and transferred to a 10 cm tissue culture dish containing cold PBS. Two forceps were used to tear the yolk sacs to isolate each embryo. Forceps were cleaned thoroughly with 70% ethanol between each embryo isolation. The embryos were culled, and a tissue piece was collected in a PCR tube for genotyping. The red tissue of the embryo, which grows to become the heart and liver, was removed. The remainder of the embryo was minced with a scalpel blade and incubated with 7.5 ml trypsin-EDTA solution for 10 minutes in a 37° C. tissue culture CO2 incubator. The dish was removed from the incubator and checked under a light microscope for single cells. 7.5 ml complete media was added to the trypsinised cells, and the cell suspension was transferred to a 15 ml Falcon tube, centrifuged at 1200 rpm for 5 minutes at room temperature. The trypsin was aspirated, the cell pellet was resuspended in 5 ml fresh complete media, and the cell suspension was plated in a 60 mm tissue culture dish and incubated in a 37° C., 5% CO2 tissue culture incubator. The MEFs at this stage were considered as passage 0 and were passaged and expanded for experimental use once the genotype was confirmed by allelic sequencing and immunoblotting. MEFs were cultured in Dulbecco's modified Eagle medium (DMEM) containing 10% (v/v) fetal bovine serum (FBS), 2 mM L-glutamine, 100 U/ml penicillin, and 100 μg/ml streptomycin supplemented with 1× non-essential amino acids and 1 mM sodium pyruvate.
Culturing and passaging of adherent cell lines were carried out using aseptic technique in CL1 or CL2 (for PBMC isolation) biological safety cabinets. All cells were incubated in a 37° C. incubator with 5% CO2. Cell lines were regularly tested for mycoplasma contamination. For western blot assay, the cells were seeded in 6-well plates. After treating with testing compounds at indicated concentrations and time period, the media was removed and the cells were washed with PBS and lysed in 100 μl ice-cold complete lysis buffer containing 50 mM Tris-HCl pH 7.4, 1 mM EGTA, 10 mM 2-glycerophosphate, 50 mM sodium fluoride, 5 mM sodium pyrophosphate, 270 mM sucrose, supplemented with 1 μg/ml microcystin-LR, 1 mM sodium orthovanadate, complete EDTA-free protease inhibitor cocktail (Roche) and 1% (v/v) Triton X-100. The cells were immediately placed on ice and were scraped and collected into 1.5 ml Eppendorf tubes. Cell lysates were incubated on ice for 10 minutes prior to centrifugation at 15,000 g at 4° C. for 15 minutes. The cell pellet was discarded, and supernatant was collected for analysis by quantitative immunoblotting. For long term storage, the supernatant was flash frozen and stored at −80° C. Protein concentrations of cell lysates were determined using the Bradford assay.
Cell lysates containing a quarter of a volume of 4× NuPAGE LDS sample buffer (NP0007) supplemented with 5% β-mercaptoethanol, were heated at 95° C. for 5 minutes. […]

Rab10 pThr73 [2] = experiment: Rab10 Thr73 dephosphorylation (immunoblot) in LRRK2^G2019S MEFs; assay type: cell-based
Method: as §1, with “The” for “Western blot degradation assays for the LRRK2 protacs were performed with WT and PD-associated LRRK2 [G2019S] mouse embryonic fibroblasts (MEFs). The”
as §2
Culturing and passaging of adherent cell lines were carried out using aseptic technique in CL1 or CL2 (for PBMC isolation) biological safety cabinets. All cells were incubated in a 37° C. incubator with 5% CO2. Cell lines were regularly tested for mycoplasma contamination. For western blot assay, the cells were seeded in 6-well plates. […] The cells were immediately placed on ice and were scraped and collected into 1.5 ml Eppendorf tubes. Cell lysates were incubated on ice for 10 minutes prior to centrifugation at 15,000 g at 4° C. for 15 minutes. The cell pellet was discarded, and supernatant was collected for analysis by quantitative immunoblotting. For long term storage, the supernatant was flash frozen and stored at −80° C. Protein concentrations of cell lysates were determined using the Bradford assay.
Cell lysates containing a quarter of a volume of 4× NuPAGE LDS sample buffer (NP0007) supplemented with 5% β-mercaptoethanol, were heated at 95° C. for 5 minutes. 15 to 20 μg of samples were loaded onto pre-cast 4-12% Bis-Tris midi 20W or 26W gels (Thermofisher Scientific®, Cat #WG1402BOX or WG1403BOX) and resolved at 130 V for 2 hours with NuPAGE MOPS SDS running buffer (Thermofisher Scientific® Cat #NP0001-02). Proteins were electrophoretically transferred onto a 0.45 μm nitrocellulose membrane (GE Healthcare, Amersham Protran® Supported 0.45 mm NC) at 90 V for 90 min on ice in transfer buffer (48 mM Tris base and 39 mM glycine supplemented with 20% methanol). The transferred membrane was blocked with 5% (w/v) skim milk powder dissolved in tris-buffered saline with tween (TBS-T) (50 mM Tris base, 150 mM sodium chloride (NaCl), 0.1% (v/v) Tween-20) at room temperature for 1 hour.

Rab10 pThr73 [3] = experiment: as above; assay type: cell-based, mouse
[4] = 33 nM/4 h treatment, read-out: pRab10 inhibited in WT MEFs
[5] = 33 nM/24 h treatment, read-out: pRab10 inhibited in WT MEFs
[6] = 1 μM/4 h treatment, read-out: pRab10 inhibited in WT MEFs
[7] = 1 μM/24 h treatment, read-out: pRab10 inhibited in WT MEFs
[8] = 33 nM/4 h treatment, read-out: pRab10 inhibited in LRRK2^G2019S MEFs
[9] = 33 nM/24 h treatment, read-out: pRab10 inhibited in LRRK2^G2019S MEFs
[10] = 1 μM/4 h treatment, read-out: pRab10 inhibited in LRRK2^G2019S MEFs
[11] = 1 μM/24 h treatment, read-out: pRab10 inhibited in LRRK2^G2019S MEFs

SMILES | inhibition at 0.033 µM (Rab10 pThr73 [1]; [4]) [%] | inhibition at 0.033 µM (Rab10 pThr73 [1]; [5]) [%] | inhibition at 1 µM (Rab10 pThr73 [1]; [6]) [%] | inhibition at 1 µM (Rab10 pThr73 [1]; [7]) [%] | inhibition at 0.033 µM (Rab10 pThr73 [2]; [8]) [%] | inhibition at 0.033 µM (Rab10 pThr73 [2]; [9]) [%] | inhibition at 1 µM (Rab10 pThr73 [3]; [10]) [%] | inhibition at 1 µM (Rab10 pThr73 [3]; [11]) [%] | inhibition at 0.033 µM (Rab10 pThr73 [1]; read-out: pRab10 inhibited in WT MEFs, 33 nM/4 h treatment) [%] | inhibition at 0.033 µM (Rab10 pThr73 [1]; read-out: pRab10 inhibited in WT MEFs, 33 nM/24 h treatment) [%] | inhibition at 1 µM (Rab10 pThr73 [1]; read-out: pRab10 inhibited in WT MEFs, 1 μM/4 h treatment) [%] | inhibition at 1 µM (Rab10 pThr73 [1]; read-out: pRab10 inhibited in WT MEFs, 1 μM/24 h treatment) [%] | inhibition at 0.033 µM (Rab10 pThr73 [2]; read-out: pRab10 inhibited in LRRK2^G2019S MEFs, 33 nM/4 h treatment) [%] | inhibition at 0.033 µM (Rab10 pThr73 [2]; read-out: pRab10 inhibited in LRRK2^G2019S MEFs, 33 nM/24 h treatment) [%] | inhibition at 1 µM (Rab10 pThr73 [3]; read-out: pRab10 inhibited in LRRK2^G2019S MEFs, 1 μM/4 h treatment) [%] | inhibition at 1 µM (Rab10 pThr73 [3]; read-out: pRab10 inhibited in LRRK2^G2019S MEFs, 1 μM/24 h treatment) [%]
CNc1nc(Nc2ccc(C(=O)N3CCN(CCOCCOCCOc4cc(-c5scnc5C)ccc4CNC(=O)[C@@H]4C[C@@H](O)CN4C(=O)[C@@H](NC(=O)C4(F)CC4)C(C)(C)C)CC3)cc2OC)ncc1Cl [SD12, (2S,4R)—N-(2-(2-(2-(2-(4-(4-((5-chloro-4-(methylamino)pyrimidin-2-yl)amino)-3-methoxybenzoyl)piperazin-1-yl)ethoxy)ethoxy)ethoxy)-4-(4-methylthiazol-5-yl)benzyl)-1-((S)-2-(1-fluorocyclopropane-1-carboxamido)-3,3-dimethylbutanoyl)-4-hydroxypyrrolidine-2-carboxamide] | 0 to 25 | 10 to 40 | 18 to 90 | 30 to 90 | 0 to 60 | 0 to 70 | 30 to 95 | 30 to 100 |  |  |  |  |  |  |  | 
CNc1nc(Nc2ccc(OCCOCCCSC(C)(C)[C@@H](NC(=O)C3(F)CC3)C(=O)N3C[C@H](O)C[C@H]3C(=O)NCc3ccc(-c4scnc4C)cc3)cc2OC)ncc1Cl [XL01149, (2S,4R)-1-((S)-3-((3-(2-(4-((5-chloro-4-(methylamino)pyrimidin-2-yl)amino)-3-methoxyphenoxy)ethoxy)propyl)thio)-2-(1-fluorocyclopropane-1-carboxamido)-3-methylbutanoyl)-4-hydroxy-N-(4-(4-methylthiazol-5-yl)benzyl)pyrrolidine-2-carboxamide] | 0 to 40 | 0 to 60 | 10 to 95 | 30 to 100 | 0 to 70 | 0 to 90 | 20 to 100 | 10 to 100 |  |  |  |  |  |  |  | 
CNc1nc(Nc2ccc(C(=O)N3CCC4(CCN(CCCSC(C)(C)[C@H](NC(=O)C5(F)CC5)C(=O)N5C[C@H](O)C[C@H]5C(=O)NCc5ccc(-c6scnc6C)cc5)CC4)CC3)cc2OC)ncc1Cl [XL02067B, (2S,4R)-1-((R)-3-((3-(9-(4-((5-chloro-4-(methylamino)pyrimidin-2-yl)amino)-3-methoxybenzoyl)-3,9-diazaspiro[5.5]undecan-3-yl)propyl)thio)-2-(1-fluorocyclopropane-1-carboxamido)-3-methylbutanoyl)-4-hydroxy-N-(4-(4-methylthiazol-5-yl)benzyl)pyrrolidine-2-carboxamide] |  |  |  |  |  |  |  |  | 0 to 70 | 0 to 80 | 80 to 100 | 80 to 100 | 0 to 90 | 30 to 90 | 10 to 100 | 80 to 100
CNc1nc(Nc2ccc(C(=O)N3CCN(Cc4ccc(CSC(C)(C)[C@H](NC(=O)C5(F)CC5)C(=O)N5C[C@H](O)C[C@H]5C(=O)NCc5ccc(-c6scnc6C)cc5)cc4)CC3)cc2OC)ncc1C(F)(F)F [XL01070B, (2S,4R)-1-((R)-2-(1-fluorocyclopropane-1-carboxamido)-3-((4-((4-(3-methoxy-4-((4-(methylamino)-5-(trifluoromethyl)pyrimidin-2-yl)amino)benzoyl)piperazin-1-yl)methyl)benzyl)thio)-3-methylbutanoyl)-4-hydroxy-N-(4-(4-methylthiazol-5-yl)benzyl)pyrrolidine-2-carboxamide] | 0 to 40 | 0 to 60 | 10 to 95 | 30 to 100 | 0 to 70 | 0 to 90 | 20 to 100 | 10 to 100 |  |  |  |  |  |  |  | 
CNc1nc(Nc2ccc(C(=O)N3CCN(Cc4ccc(CSC(C)(C)[C@H](NC(=O)C5(F)CC5)C(=O)N5C[C@H](O)C[C@H]5C(=O)N[C@@H](C)c5ccc(-c6scnc6C)cc5)cc4)CC3)cc2OC)ncc1Cl [XL01120, (2S,4R)-1-((R)-3-((4-((4-(4-((5-chloro-4-(methylamino)pyrimidin-2-yl)amino)-3-methoxybenzoyl)piperazin-1-yl)methyl)benzyl)thio)-2-(1-fluorocyclopropane-1-carboxamido)-3-methylbutanoyl)-4-hydroxy-N—((S)-1-(4-(4-methylthiazol-5-yl)phenyl)ethyl)pyrrolidine-2-carboxamide] | 0 to 40 | 0 to 60 | 10 to 95 | 30 to 100 | 0 to 70 | 0 to 90 | 20 to 100 | 10 to 100 |  |  |  |  |  |  |  | 
